The target of experiment [1] is T1, BRD4 Bromodomain 1 (BRD4 BD1) (Homo sapiens, UniProt O60885).
T1 construct: 44-168 and BRD4 BD2
Kind of experiment: AlphaScreen binding assay, BRD4 BD1. To be noted: His-tagged BRD4 BD1 50 nM, biotinylated H4 (1-21) K5/8/12/16 tetra-acetylated peptide 50 nM, compounds listed under IC50 range headings. In a few lines: (§1)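 Compound dilution series were mixed with His-tagged BRD4 bromodomain and biotinylated tetra-acetylated H4 (1-21) peptide at pH 7.3 (BD1 and peptide at 50 nM, BD2 and peptide at 100 nM). Donor and acceptor beads were then added, and plates were equilibrated at least 1 h before reading. IC50 values were fitted with a four-parameter logistic model.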

The target of experiment [2] is T2, BRD4 Bromodomain 2 (BRD4 BD2) (Homo sapiens, UniProt O60885).
T2 construct: 333-460 were cloned, expressed, and purified to homogeneity
Kind of experiment: AlphaScreen binding assay, BRD4 BD2. To be noted: His-tagged BRD4 BD2 100 nM, biotinylated H4 (1-21) K5/8/12/16 tetra-acetylated peptide 100 nM, compounds listed under IC50 range headings. The method, boiled down:
as §1

The test system of experiment [3] is acute myelocytic leukemia (AML) cell line MV4-11. In words: Oncology cell growth assay (3-day proliferation, CellTiter-Glo). Format: cell-based. To be noted: Homo sapiens, MV4-11, 72 h, MV4-11 cells, 3000 cells/well, compounds listed under IC50 range headings, read-out: MV411 IC50 (gIC50, inhibition of proliferation). In a few lines: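 Luminescence from CellTiter-Glo served as the growth read-out after MV4-11 cells (3000/well) were cultured with compound for 72 hours. Final concentrations spanned 10 to 0.0045 μM in 3-fold steps. gIC50 values were derived by four-parameter logistic fitting relative to DMSO and cell-free controls.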

Each structure is given as a SMILES string. A value given as a limit tells only on which side of the number the result lay.

Turning to `COC(=O)N1c2ccc(-c3cnn(C4CCNCC4)c3)c(Oc3cccc(F)c3C#N)c2CC[C@@H]1C` [I-148, (S)-methyl 5-(2-cyano-3-fluorophenoxy)-2-methyl-6-(1-(piperidin-4-yl)-1H-pyrazol-4-yl)-3,4-dihydroquinoline-1(2H)-carboxylate], the IC50 in experiment [1] was 100 to 1000 nM; in experiment [2], less than 50 nM; in experiment [3], less than 500 nM.

In the case of `COC(=O)N1c2ccc(-c3cnn(CCS(C)(=O)=O)c3)c(Oc3ncc(F)cn3)c2CC[C@@H]1C` [I-574], the IC50 lay within 1000 to 10000 nM in experiment [1], 50 to 500 nM in experiment [2] and 500 to 1000 nM in experiment [3].

`CC(=O)N1c2ccc(-c3cnn(CCO)c3)c(Oc3ncc(C(F)(F)F)cn3)c2CC[C@@H]1C` [I-542]: the results for the IC50 in experiment [1], in experiment [2] and in experiment [3] were 100 to 1000 nM, 50 to 500 nM and less than 500 nM, respectively.

Regarding `CC(=O)N1c2ccc(-c3cnn(CCO)c3)c(OCC3CCOCC3)c2CC[C@@H]1C` [I-415], the results for the IC50 in experiment [1], in experiment [2] and in experiment [3] were less than 100 nM, less than 50 nM and less than 500 nM, respectively.

Take `COC(=O)N1c2ccc(-c3cnn(C4CNC4)c3)c(Oc3cccc(F)c3C#N)c2CC[C@@H]1C` [I-139, (S)-methyl 6-(1-(azetidin-3-yl)-1H-pyrazol-4-yl)-5-(2-cyano-3-fluorophenoxy)-2-methyl-3,4-dihydroquinoline-1(2H)-carboxylate]: the values for the IC50 in experiment [1], in experiment [2] and in experiment [3] were 100 to 1000 nM, less than 50 nM and less than 500 nM, respectively.

Turning to `COC(=O)N1c2ccc(-c3cnn([C@H]4CCNC[C@@H]4F)c3)c(OC3CCC3)c2CC[C@@H]1C` [I-363, methyl (2S)-5-cyclobutoxy-6-{1-[(3S,4S)-3-fluoropiperidin-4-yl]-1H-pyrazol-4-yl}-2-methyl-1,2,3,4-tetrahydroquinoline-1-carboxylate], the IC50 in experiment [1] was 100 to 1000 nM; in experiment [2], less than 50 nM; in experiment [3], less than 500 nM.

In the case of `CCCOc1c(C2CCNCC2)ccc2c1CC[C@H](C)N2C(C)=O` [I-353, (S)-1-(2-methyl-6-(piperidin-4-yl)-5-propoxy-3,4-dihydroquinolin-1(2H)-yl)ethan-1-one], the IC50 in experiment [1] is no less than 10000 nM; in experiment [2] it was no less than 500 nM; in experiment [3] it was greater than 1000 nM.

With `COC(=O)N1c2ccc(-c3cnn(CCS(C)(=O)=O)c3)c(OC3CCC3)c2CC[C@@H]1C` [I-444], the IC50 in experiment [1] is 100 to 1000 nM; in experiment [2] it was less than 50 nM; in experiment [3], less than 500 nM.

Turning to `CCCOc1c(-c2nc3ccccc3s2)ccc2c1CC[C@H](C)N2C(C)=O` [I-120, (S)-1-(6-(benzo[d]thiazol-2-yl)-2-methyl-5-propoxy-3,4-dihydroquinolin-1(2H)-yl)ethanone], the IC50 in experiment [1] was 1000 to 10000 nM; in experiment [2], no less than 500 nM; in experiment [3], greater than 1000 nM.

For `CC(=O)N1c2ccc(-c3cnn(C4CC4)c3)c(OCC(F)(F)F)c2CC[C@@H]1C` [I-35, (S)-1-(6-(1-cyclopropyl-1H-pyrazol-4-yl)-2-methyl-5-(2,2,2-trifluoroethoxy)-3,4-dihydroquinolin-1(2H)-yl)ethanone], the IC50 was in the range of 1000 to 10000 nM in experiment [1], 50 to 500 nM in experiment [2] and 500 to 1000 nM in experiment [3].

For `COC(=O)N1c2ccc(-c3cnn(CCS(C)(=O)=O)c3)c(Oc3ncccc3C(F)(F)F)c2CC[C@@H]1C` [I-562], the IC50 in experiment [1] was in the range of 1000 to 10000 nM; in experiment [2], 50 to 500 nM; in experiment [3], 500 to 1000 nM.

With `COC(=O)N1c2ccc(-c3cnn(C4CC4)c3)c(O[C@H](F)C(N)=O)c2CC[C@@H]1C` [I-19, (S)-methyl 5-((R)-2-amino-1-fluoro-2-oxoethoxy)-6-(1-cyclopropyl-1H-pyrazol-4-yl)-2-methyl-3,4-dihydroquinoline-1(2H)-carboxylate], the figures for the IC50 in experiment [1], in experiment [2] and in experiment [3] were 1000 to 10000 nM, 50 to 500 nM and greater than 1000 nM, respectively.

As to `COC(=O)N1c2ccc(-c3cnn(C4CCNCC4)c3)c(Oc3ccc(Cl)cc3C#N)c2CC[C@@H]1C` [I-132, (S)-methyl 5-(4-chloro-2-cyanophenoxy)-2-methyl-6-(1-(piperidin-4-yl)-1H-pyrazol-4-yl)-3,4-dihydroquinoline-1(2H)-carboxylate], the IC50 in experiment [1] was 100 to 1000 nM; in experiment [2], less than 50 nM; in experiment [3], less than 500 nM.

Regarding `CC(=O)N1c2ccc(-c3cnn(C4CC4)c3)c(OC3CCCC3)c2CC[C@@H]1C` [I-396], the IC50 in experiment [1] is 100 to 1000 nM; in experiment [2], less than 50 nM; in experiment [3] it was less than 500 nM.

With `CC(=O)N1c2ccc(-c3cnn(C4CC4)c3)c(Oc3ncc4[nH]cnc4n3)c2CC[C@@H]1C` [I-289, (S)-1-(5-(7H-purin-2-yloxy)-6-(1-cyclopropyl-1H-pyrazol-4-yl)-2-methyl-3,4-dihydroquinolin-1(2H)-yl)ethanone], the IC50 was in the range of 1000 to 10000 nM in experiment [1], 50 to 500 nM in experiment [2] and 500 to 1000 nM in experiment [3].

In the case of `COC(=O)N1c2ccc(-c3cnn(C4CCNCC4)c3)c(Oc3ccnc(C(F)(F)F)n3)c2CC[C@@H]1C` [I-529], the IC50 in experiment [1] was 1000 to 10000 nM; in experiment [2] it was 50 to 500 nM; in experiment [3], less than 500 nM.

For `CC(=O)N1c2ccc(-c3cnn(C4CC4)c3)c(OCC3CC3)c2CC[C@@H]1C` [I-390], the values for the IC50 in experiment [1], in experiment [2] and in experiment [3] were 100 to 1000 nM, less than 50 nM and less than 500 nM, respectively.

Take `CC(=O)N1c2ccc(-c3cnn(C4CCNCC4)c3)c(Oc3ccc(F)cc3)c2CC[C@@H]1C` [I-190, (S)-1-(5-(4-fluorophenoxy)-2-methyl-6-(1-(piperidin-4-yl)-1H-pyrazol-4-yl)-3,4-dihydroquinolin-1(2H)-yl)ethanone]: the figures for the IC50 in experiment [1], in experiment [2] and in experiment [3] were 100 to 1000 nM, 50 to 500 nM and less than 500 nM, respectively.

Take `CC(=O)N1c2ccc(-c3cnn(C4CC4)c3)c(Oc3ccc(C(=O)N(C)C)cc3)c2CC[C@@H]1C` [I-595]: the values for the IC50 in experiment [1], in experiment [2] and in experiment [3] were 100 to 1000 nM, 50 to 500 nM and less than 500 nM, respectively.

In the case of `C[C@H]1CCc2c(ccc(-c3cnn(C4CNC4)c3)c2Oc2cccc(F)c2F)N1C(=O)C1CC1` [I-268, (S)-(6-(1-(azetidin-3-yl)-1H-pyrazol-4-yl)-5-(2,3-difluorophenoxy)-2-methyl-3,4-dihydroquinolin-1(2H)-yl)(cyclopropyl)methanone], the IC50 in experiment [1] was 100 to 1000 nM; in experiment [2], less than 50 nM; in experiment [3], less than 500 nM.

On to `COC(=O)N1c2ccc(-c3cnn(C4CC4)c3)c(Oc3ncccc3C(N)=O)c2CC[C@@H]1C` [I-587], for which the figures for the IC50 in experiment [1], in experiment [2] and in experiment [3] were 1000 to 10000 nM, 50 to 500 nM and 500 to 1000 nM, respectively.

As to `COC(=O)N1c2ccc(-c3cnn([C@H]4CCNC[C@@H]4F)c3)c(Oc3ccc(F)cc3)c2CC[C@@H]1C` [I-364, methyl (2S)-5-(4-fluorophenoxy)-6-{1-[(3S,4S)-3-fluoropiperidin-4-yl]-1H-pyrazol-4-yl}-2-methyl-1,2,3,4-tetrahydroquinoline-1-carboxylate], the IC50 in experiment [1] is 100 to 1000 nM; in experiment [2] it was less than 50 nM; in experiment [3], less than 500 nM.

For `CCCOc1c(C2CCN(S(C)(=O)=O)CC2)ccc2c1CC[C@H](C)N2C(C)=O` [I-355, (S)-1-(2-methyl-6-(1-(methylsulfonyl)piperidin-4-yl)-5-propoxy-3,4-dihydroquinolin-1 (2H)-yl)ethan-1-one], the figures for the IC50 in experiment [1], in experiment [2] and in experiment [3] were no less than 10000 nM, no less than 500 nM and greater than 1000 nM, respectively.
